Data on six compounds can be found in patent publication US9925130B2, “Composition with zinc amino acid/trimethylglycine halide precursors” (Colgate-Palmolive Company, priority 2012, dated 2018).

Structures are written as SMILES. Some results are limits rather than exact numbers.

Data set [1] is described as follows: Hydrolysis reaction: pH and turbidity of diluted ZLC solutions before and after aging. It is filed as physicochemical. The following applies: for pH after aging / turbidity after aging (NTU): 37° C. over 5 hours. On the procedure: A 185 mg/ml solution of ZLC is prepared and diluted several-fold and aged in a 37° C. oven over 5 hours for turbidity studies. […] Turbidity of the solutions is measured using a nephelometer, results being given in nephelometric turbidity units (NTU).
The precipitates formed in the 8×, 16× and 32× diluted solutions are collected by centrifugation and identified as crystalline ZnO by PXRD. From the supernatant, a single crystal is grown and shown by X-ray diffraction to be Lysine Monohydrochloride Dihydrate (Lysine.HCl.2H2O).

Data set [2] addresses Bovine Serum Albumin (BSA) (Bos taurus, UniProt P02769). The experiment in a line: Flocculation of ZLC in the presence of protein (BSA): turbidity and pH. The following applies: for observation / pH / Turbidity (NTU): ZLC about 15 mg/ml, 5 hours 37° C. It is filed as physicochemical. On the procedure:
Turbidity and pH of solutions are measured 5 hours after the mixtures were placed in a 37° C. oven, and the results are shown in Table 6.

A further data set relates to C. minutissimum. The data set is described as follows: Zone of inhibition test on TSA plates. Conditions: Table 3, sample type not given. The format is cell-based. On the procedure:
(§1) A zone of inhibition test is conducted on several materials: zinc oxide and amino acid hydrohalide alone and a mixture formed from zinc oxide and amino acid hydrohalide. The method involves making a lawn of freshly prepared bacterial culture on TSA (trypticase soy agar) plates. Sterile filter paper discs are seeded with 20 μl of test sample (supernatant or mixture). Sample-coated filter paper discs are air dried and applied onto the bacterial lawn on TSA plates. Plates are incubated for 20 hours at 37° C.
Similar antibacterial efficacy is seen when tetrabasic zinc chloride is used in place of zinc oxide as the source of zinc ions.

Another data set has as its system S. epider. The experiment in a line: Zone of inhibition test on TSA plates. The format is cell-based. The following applies: 20 h 37° C. On the procedure: as §1
A further data set relates to C. xerosis. The experiment in a line: Zone of inhibition test on TSA plates. The format is cell-based. Conditions: 20 h 37° C. How it is done: as §1
The test system of another data set is S. aureus. The data set is described as follows: Zone of inhibition test on TSA plates. It is filed as cell-based. How it is done: as §1
The nature of data set [3]: Solubilization of zinc: free Zn2+ in supernatant by atomic absorption. Conditions: dispersed in water, equilibrated overnight. It is filed as physicochemical. From the text: Ingredients are dispersed in water, equilibrated overnight, and the supernatant analyzed for free Zn^2+ by atomic absorption.
[4] abbreviates: sample 1: DI water, 0% BSA, pH 6.4.
Setting [5] is: sample 3: 1% BSA, pH adjusted to 5.1.

Sequence of Bovine Serum Albumin (BSA) (P02769 25-607): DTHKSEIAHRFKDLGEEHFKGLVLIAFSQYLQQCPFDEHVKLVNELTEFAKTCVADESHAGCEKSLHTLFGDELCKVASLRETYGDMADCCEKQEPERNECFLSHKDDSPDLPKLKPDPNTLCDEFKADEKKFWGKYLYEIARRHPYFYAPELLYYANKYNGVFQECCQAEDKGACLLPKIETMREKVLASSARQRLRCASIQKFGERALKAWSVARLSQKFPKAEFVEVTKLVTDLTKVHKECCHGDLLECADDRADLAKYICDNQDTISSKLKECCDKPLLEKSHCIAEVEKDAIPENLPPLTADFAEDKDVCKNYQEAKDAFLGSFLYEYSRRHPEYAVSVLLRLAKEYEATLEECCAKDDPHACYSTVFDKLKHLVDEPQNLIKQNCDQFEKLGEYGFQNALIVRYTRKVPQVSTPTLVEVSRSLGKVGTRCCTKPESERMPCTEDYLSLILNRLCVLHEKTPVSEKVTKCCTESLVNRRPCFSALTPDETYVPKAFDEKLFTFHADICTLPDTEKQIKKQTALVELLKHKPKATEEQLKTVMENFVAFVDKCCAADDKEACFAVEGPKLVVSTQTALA

Turning to `NCCCCC(N)C(=O)O.NCCCCC(N)C(=O)O.O.O.[Cl-].[Cl-].[Zn+2]` (centres unmarked) [ZLC, [Zn(Lysine)2Cl]^+Cl^−.2H2O], the “initial pH” value is recorded as 8 in data set [1] (5.78 mg/ml); 7.8 in data set [1] (11.56 mg/ml); 7.7 in data set [1] (23.125 mg/ml); 7.4 in data set [1] (46.25 mg/ml); 7 in data set [1] (92.5 mg/ml); 6.8 in data set [1] (185 mg/ml). For the same compound, the pH after aging in data set [1] (5.78 mg/ml) was determined as 8; in data set [1] (11.56 mg/ml), 7.8; in data set [1] (23.125 mg/ml) it was 7.7; in data set [1] (46.25 mg/ml), 7.4; in data set [1] (92.5 mg/ml), 7; in data set [1] (185 mg/ml), 6.8. Moreover, the “turbidity after aging (NTU)” value is recorded as greater than 1000 NTU in data set [1] (5.78 mg/ml); greater than 1000 NTU in data set [1] (11.56 mg/ml); 2.8 NTU in data set [1] (46.25 mg/ml); 2.6 NTU in data set [1] (92.5 mg/ml); 4.1 NTU in data set [1] (185 mg/ml). The “initial turbidity (NTU)” value in data set [1] (23.125 mg/ml) is given as 0.7 NTU; in data set [1] (46.25 mg/ml) it was 1.5 NTU; in data set [1] (92.5 mg/ml) it was 2.8 NTU; in data set [1] (185 mg/ml), 4.7 NTU. For the same compound, the “observation as the 185 mg/ml solution is diluted” value in data set [1] (diluted several-fold, 37° C.) is reported as “white precipitate forms”. Also, in data set [1] (precipitates of 8×, 16×, 32× dilutions identified as crystalline ZnO by PXRD, Lysine.HCl.2H2O from supernatant), the “stability of the complex upon dilution” value was “disassociates upon dilution, with consequent precipitation of zinc oxide”. In data set [2] (proteins such as BSA), the flocculation of proteins result was “ability to flocculate proteins”. The observation entry is listed as “slightly cloudy” in data set [2] (setting [4]); “precipitate” in data set [2] (sample 2: 1% BSA, pH 7.2); “precipitate” in data set [2] (setting [5]). The pH in data set [2] (setting [4]) came to 8; in data set [2] (sample 2: 1% BSA, pH 7.2), 8.2; in data set [2] (setting [5]) it was 8. In addition, the “Turbidity (NTU)” value is listed as greater than 1000 NTU in data set [2] (sample 2: 1% BSA, pH 7.2) and greater than 1000 NTU in data set [2] (setting [5]).
For `Cl.NCCCC[C@H](N)C(=O)O` [Lysine-HCl 23.2%, lysine hydrochloride], the “Zone of Inhibition” value in the data set on C. minutissimum is 0 mm; in the data set with S. epider. (Dry Sample, As is) it was 0 mm; with S. epider. (Wet Sample, As is), 0 mm; in the data set with C. xerosis (Dry Sample, As is), 0 mm; in the data set with C. xerosis (Wet Sample, As is), 0 mm; with S. aureus (Dry Sample, As is, 20 h 37° C.), 0 mm. The “Zone of Inhibition” value in the data set with S. aureus (Table 3, sample type not given) worked out at 0 mm; with S. aureus (Wet Sample, As is, 20 h 37° C.), 0 mm.
Regarding `[Cl-].[Cl-].[OH-].[OH-].[OH-].[OH-].[OH-].[OH-].[OH-].[OH-].[Zn+2].[Zn+2].[Zn+2].[Zn+2].[Zn+2]` [TBZC (4%), Tetrabasic zinc chloride], the “Zone of Inhibition” value is on record as 6 mm in the data set with S. aureus (Table 3, Mixture) and 6 mm in the data set with S. aureus (Table 3, Supernat).
Take `NCCCC[C@H](N)C(=O)O` [Lysine 4%, lysine]: the “Zone of Inhibition” value in the data set on C. minutissimum was found to be 0 mm; with S. aureus (Table 3, sample type not given) it was 0 mm.
Take `[O]=[Zn]` [ZnO(4%), zinc oxide]: in data set [3], the “Free Zn” value is given as 11 ppm. For the same compound, the “Zone of Inhibition” value with S. epider. (Dry Sample, Mixture) turned out to be 10 mm; with S. epider. (Dry Sample, Supernatant), 0 mm; with S. epider. (Wet Sample, Mixture), 12 mm; in the data set on S. epider. (Wet Sample, Supernatant), 0 mm; with C. xerosis (Dry Sample, Mixture), 0 mm; in the data set with C. xerosis (Dry Sample, Supernatant), 0 mm. For the same compound, the “Zone of Inhibition” value with C. xerosis (Wet Sample, Mixture) is recorded as 0 mm; in the data set with C. xerosis (Wet Sample, Supernatant) it was 0 mm; in the data set with S. aureus (Dry Sample, Mixture, 20 h 37° C.), 7 mm; with S. aureus (Dry Sample, Supernatant, 20 h 37° C.), 0 mm; in the data set with S. aureus (Wet Sample, Mixture, 20 h 37° C.), 7 mm; in the data set on S. aureus (Wet Sample, Supernatant, 20 h 37° C.), 0 mm.
As for `N=C(N)NCCC[C@H](N)C(=O)O` [Arginine 4%, arginine], the “Zone of Inhibition” value in the data set on C. minutissimum amounted to 0 mm; in the data set on S. aureus (Table 3, sample type not given), 0 mm.
